{"source": "patent US20220168430A1", "about": "“THERAPEUTIC METHODS FOR TREATING HEPATITIS B” (priority 2019, published 2022)", "key": {"HBV rcDNA": {"tested_on": "HBV rcDNA", "assay": "microbe, parasite or virus in culture", "format": "cell-based, HBV genotype D, serotype ayw; HepG 2.2.15", "conditions": "for SYNERGY PLOT (99%) Bonferroni Adj. 55%: TDF 0 μM, Cmpd 1 by row r37-r42: 0.405, 0.135, 0.045, 0.015, 0.005, 0 μM", "procedure": "In vitro triple agent combination studies were conducted using the method of Prichard and Shipman 1990 (Prichard M N, Shipman C, Jr. 1990. Antiviral Res 14:181-205). The HepG 2.2.15 cell line was derived from HepG2 cells with constitutive expression of HBV (genotype D, serotype ayw) (Sells M A, Chen M L, Acs G. 1987. Proc Natl Acad Sci USA 84:1005-9). […] The plates were incubated for 7 days in a humidified incubator at 37° C. and 5% CO2. The level of rcDNA present in the culture supernatants was measured using a Quantigene 2.0 bDNA assay kit (Affymetrix, Santa Clara, Calif.) with HBV specific custom probe set (genotype D ayw) and according to the manufacturer's instructions and read using a luminescence plate reader and the relative luminescence units (RLU) data generated from each well was calculated as % inhibition of the untreated control wells and analyzed using the MacSynergy II program to determine whether the combinations were synergistic, additive or antagonistic using the interpretive guidelines established by Prichard and Shipman (Prichard M N, Shipman C, Jr. 1990. […] Concurrently, in each experiment, the effect of inhibitor combinations on cell viability was assessed in triplicates that were used to determine the ATP content as a measure of cell viability using the Cell-Titer Glo reagent (Promega, Madison, Wis.) as per the manufacturer's instructions."}, "HBV DNA [1]": {"tested_on": "HBV DNA", "assay": "HBV DNA in culture supernatants of HBV-infected PHH by qPCR, single agents and double combinations (Examples 1-4)", "format": "cell-based, HBV genotype D; primary human hepatocytes", "conditions": "Hepatitis B virus", "procedure": "(§1) The day PHH seeding date was defined as day 0.\n(§2) The PHH were infected with 400 HBV GE/cell of HBV genotype D type HBV on day 1.\n(§3) The test articles were further diluted with the culture medium to the final test concentrations.\n(§4) All the test articles were further diluted 100 times with the culture medium. The final concentration of DMSO in the culture medium was […].\n(§5) The compounds were tested at 7 concentrations, 3-fold dilution, in triplicate.\n(§6) Four two-way combinations were performed on a 5×5 matrix, in triplicate plates. Transfection reagent was present in all wells. The culture medium containing the articles were refreshed every 1 or 2 days.\nDNA in the culture supernatants harvested on days 8 was isolated with QIAamp 96 DNA Blood Kit (Qiagen-51162). For each sample, 100 μl of each culture supernatant was used to extract DNA. The DNA was eluted with 180 μl of AE. HBV DNA in the culture supernatants was quantified by quatitative PCR using primers and probes outlined in Table 3. Percent inhibition of HBV DNA was calculated with the formula below:\n% Inh. HBV DNA=[1−value of sample/AVG. value of Medium control]×100.\n(§7) Results of double combination studies were analyzed using MacSynergy II software (Prichard and Shipman, 1992)."}, "HBsAg": {"tested_on": "HBsAg", "assay": "microbe, parasite or virus in culture", "format": "cell-based, HBV genotype D; primary human hepatocytes", "conditions": "Hepatitis B virus", "procedure": "as §1, §2, §3, §4, §5, §6\nHBsAg in the culture supernatants harvested on days 8 was measured using the HBsAg/ELISA kit (Autobio) according to the manual. The samples were diluted with PBS to get the signal in the range of the standard curve. Percent inhibition of HBsAg was calculated with the formula below:\n% Inh. HBsAg=[1−HBsAg quantity of sample/[…] of DMSO control]×100\nas §7"}, "HBV DNA [2]": {"tested_on": "HBV DNA", "format": "in vivo, C57BL/6 mice; HBV serotype Ayw, genotype D", "conditions": "for Serum HBV DNA: group mean ± SEM, n=6", "procedure": "Prior to treatment start, 1×10^11 viral genomes of an adeno-associated virus (AAV) vector carrying a 1.3-fold overlength copy of an HBV genome (serotype Ayw, genotype D) was administered to C57BL/6 mice via intravenous injection. Introduction of this viral vector results in the expression of HBV DNA and HBV surface antigen (HBsAg) amongst other HBV products. Serum HBV DNA levels in mice was measured using a quantitative polymerase chain reaction (QPCR) assay, HBsAg in serum and liver of mice was measured using an enzyme-linked immunosorbent assay (ELISA), and anti-HBsAg antibodies were measured using ELISA.\nTreatment effects on serum HBV DNA were determined by collecting a small amount of blood on Days 0 (pre-treatment) and 14, as well as from terminal blood collections at Day 42. Treatment effects on HBsAg in serum and liver were determined from terminal sample collections at Day 42.\nAny individual animal samples measured to fall below assay lower limit of quantitation (LLOQ) were reported as the LLOQ value."}, "[3]": {"conditions": "Hepatitis B virus, HepG2.2.15, read-out: ADDITIVE INHIBITION"}}, "note": "Like-named read-outs stand apart in the source and are kept apart here.", "data": [{"smiles": "COCCCOc1cc2c(nc1OC)-c1cc(=O)c(C(=O)O)cn1[C@H](C(C)C)C2", "note": "[Compound 2]", "values": [{"measurement": "AVERAGE % INHIBITION", "setting": "HBV rcDNA; Cmpd 1 0 μM, Cmpd 2 0.0001 μM, TAF 0 μM", "value": 31.76, "unit": "%"}, {"measurement": "AVERAGE % INHIBITION", "setting": "HBV rcDNA; Cmpd 1 0 μM, Cmpd 2 0.0002 μM, TAF 0 μM", "value": 43.68, "unit": "%"}, {"measurement": "AVERAGE % INHIBITION", "setting": "HBV rcDNA; Cmpd 1 0 μM, Cmpd 2 0.0004 μM, TAF 0 μM", "value": 58.53, "unit": "%"}, {"measurement": "AVERAGE % INHIBITION", "setting": "HBV rcDNA; Cmpd 1 0 μM, Cmpd 2 0.001 μM, TAF 0 μM", "value": 71.85, "unit": "%"}, {"measurement": "AVERAGE % INHIBITION", "setting": "HBV rcDNA; Cmpd 1 0 μM, Cmpd 2 0.002 μM, TAF 0 μM", "value": 78.06, "unit": "%"}, {"measurement": "AVERAGE % INHIBITION", "setting": "HBV rcDNA; Cmpd 1 0 μM, Cmpd 2 0.003 μM, TAF 0 μM", "value": 83.72, "unit": "%"}, {"measurement": "AVERAGE % INHIBITION", "setting": "HBV rcDNA; Cmpd 1 0 μM, Cmpd 2 0.007 μM, TAF 0 μM", "value": 85.49, "unit": "%"}, {"measurement": "AVERAGE % INHIBITION", "setting": "HBV rcDNA; Cmpd 1 0 μM, Cmpd 2 0.027 μM, TAF 0 μM", "value": 87.17, "unit": "%"}, {"measurement": "AVERAGE % INHIBITION", "setting": "HBV rcDNA; Cmpd 1 0 μM, Cmpd 2 […], TAF 0 μM", "value": 89.05, "unit": "%"}, {"measurement": "SYNERGY PLOT (99%) Bonferroni Adj. 55%", "setting": "HBV rcDNA; Cmpd 2 0.00002 μM", "value": 0}, {"measurement": "SYNERGY PLOT (99%) Bonferroni Adj. 55%", "setting": "HBV rcDNA; Cmpd 2 0.00004 μM", "value": 0}, {"measurement": "SYNERGY PLOT (99%) Bonferroni Adj. 55%", "setting": "HBV rcDNA; Cmpd 2 0.00008 μM", "value": 0}, {"measurement": "SYNERGY PLOT (99%) Bonferroni Adj. 55%", "setting": "HBV rcDNA; Cmpd 2 0.00016 μM", "value": 0}, {"measurement": "SYNERGY PLOT (99%) Bonferroni Adj. 55%", "setting": "HBV rcDNA; Cmpd 2 0.0003 μM", "value": 0}, {"measurement": "SYNERGY PLOT (99%) Bonferroni Adj. 55%", "setting": "HBV rcDNA; Cmpd 2 0.0006 μM", "value": 0}, {"measurement": "SYNERGY PLOT (99%) Bonferroni Adj. 55%", "setting": "HBV rcDNA; Cmpd 2 0.001 μM", "value": 0}, {"measurement": "SYNERGY PLOT (99%) Bonferroni Adj. 55%", "setting": "HBV rcDNA; Cmpd 2 0.003 μM", "value": 0}, {"measurement": "SYNERGY PLOT (99%) Bonferroni Adj. 55%", "setting": "HBV rcDNA; Cmpd 2 0.005 μM", "value": 0}, {"measurement": "AVERAGE % INHIBITION", "setting": "HBV rcDNA; ETV @ 0 μM, Cmpd 2 0.0001 μM alone", "value": 39.44, "unit": "%"}, {"measurement": "AVERAGE % INHIBITION", "setting": "HBV rcDNA; ETV @ 0 μM, Cmpd 2 0.0002 μM alone", "value": 47.6, "unit": "%"}, {"measurement": "AVERAGE % INHIBITION", "setting": "HBV rcDNA; ETV @ 0 μM, Cmpd 2 0.0004 μM alone", "value": 67.99, "unit": "%"}, {"measurement": "AVERAGE % INHIBITION", "setting": "HBV rcDNA; ETV @ 0 μM, Cmpd 2 0.001 μM alone", "value": 74.24, "unit": "%"}, {"measurement": "AVERAGE % INHIBITION", "setting": "HBV rcDNA; ETV @ 0 μM, Cmpd 2 0.002 μM alone", "value": 77.97, "unit": "%"}, {"measurement": "AVERAGE % INHIBITION", "setting": "HBV rcDNA; ETV @ 0 μM, Cmpd 2 0.003 μM alone", "value": 83.78, "unit": "%"}, {"measurement": "AVERAGE % INHIBITION", "setting": "HBV rcDNA; ETV @ 0 μM, Cmpd 2 0.007 μM alone", "value": 86.78, "unit": "%"}, {"measurement": "AVERAGE % INHIBITION", "setting": "HBV rcDNA; ETV @ 0 μM, Cmpd 2 0.027 μM alone", "value": 88.04, "unit": "%"}, {"measurement": "AVERAGE % INHIBITION", "setting": "HBV rcDNA; ETV @ 0 μM, Cmpd 2 […] alone", "value": 88.65, "unit": "%"}, {"measurement": "inhibition at 20 pM", "setting": "HBV rcDNA; [3]", "value": 7.15, "unit": "%"}, {"measurement": "inhibition at 40 pM", "setting": "HBV rcDNA; [3]", "value": 9.56, "unit": "%"}, {"measurement": "inhibition at 0.00016 µM", "setting": "HBV rcDNA; [3]", "value": 36.2, "unit": "%"}, {"measurement": "inhibition at 0.0003 µM", "setting": "HBV rcDNA; [3]", "value": 40.9, "unit": "%"}, {"measurement": "inhibition at 0.0006 µM", "setting": "HBV rcDNA; [3]", "value": 64.5, "unit": "%"}, {"measurement": "inhibition at 0.001 µM", "setting": "HBV rcDNA; [3]", "value": 69.8, "unit": "%"}, {"measurement": "inhibition at 0.003 µM", "setting": "HBV rcDNA; [3]", "value": 74.5, "unit": "%"}, {"measurement": "inhibition at 0.005 µM", "setting": "HBV rcDNA; [3]", "value": 77.5, "unit": "%"}]}, {"smiles": "CC(C)OC(=O)[C@H](C)N[P@](=O)(CO[C@H](C)Cn1cnc2c(N)ncnc21)Oc1ccccc1", "note": "[TAF, tenofovir alafenamide]", "values": [{"measurement": "EC50", "setting": "HBV DNA [1]", "value": 0.083, "unit": "nM"}, {"measurement": "EC50", "setting": "HBsAg", "value": 4.12, "unit": "nM"}]}, {"smiles": "CC(C)OC(=O)OCOP(=O)(CO[C@H](C)Cn1cnc2c(N)ncnc21)OCOC(=O)OC(C)C.O=C(O)/C=C/C(=O)O", "note": "[TDF, tenofovir disoproxil fumarate, reference compound]", "values": [{"measurement": "Serum HBV DNA", "setting": "HBV DNA [2]; Day 0 (pre-treatment)", "value": "4.31 ± 0.10", "unit": "log10 copies/microliter"}, {"measurement": "Serum HBV DNA", "setting": "HBV DNA [2]; Day 14, siRNA 3 mg/kg s.c. Days 0 and 28, encapsidation inhibitor 100 mg/kg and/or TDF 1 mg/kg oral daily", "value": "3.11 ± 0.15", "unit": "log10 copies/microliter"}, {"measurement": "Serum HBV DNA", "setting": "HBV DNA [2]; Day 42, siRNA 3 mg/kg s.c. Days 0 and 28, encapsidation inhibitor 100 mg/kg and/or TDF 1 mg/kg oral daily Days 0-41", "value": "3.58 ± 0.14", "unit": "log10 copies/microliter"}, {"measurement": "HBV DNA inhibition, decrease from Day 0 to Day 42", "setting": "HBV DNA [2]; serum, AAV-HBV mice, siRNA 3 mg/kg s.c. Days 0 and 28, encapsidation inhibitor 100 mg/kg and/or TDF 1 mg/kg oral daily", "value": 0.73, "unit": "log10"}]}]}
